# Results reported in patent US20110039721A1, “METHOD FOR PREDICTION ABOUT CARCINOGENICITY OF SUBSTANCE IN RODENT” (Chemicals Evaluation and Research Institute, priority 2007, published 2011).
# Read-outs that look alike come from different tables or passages of the source.
# Key:
# [1] = test system: mRNA expressed from the genes (A) to (D) in rat liver; assay: Behavior of genes (mRNA expression level, oligo-DNA microarray) in rat liver after 28-day oral administration; format: in vivo; conditions: for Behavior of gene caused by administration of chemical substance, Gene No. 4846 / Behavior of gene caused by administration of chemical substance, Gene No. 2026 / Behavior of gene caused by administration of chemical substance, Gene No. 4218 / Behavior of gene caused by administration of chemical substance, Gene No. 6182 / Behavior of gene caused by administration of chemical substance, Gene No. 5600: gene group (A); for Behavior of gene caused by administration of chemical substance, Gene No. 4846: Unigene No. Rn.144554; for Behavior of gene caused by administration of chemical substance, Gene No. 2026 / Behavior of gene caused by administration of chemical substance, Gene No. 4218: Unigene No. Rn.167075; for Behavior of gene caused by administration of chemical substance, Gene No. 6182: Unigene No. Rn.5834; for Behavior of gene caused by administration of chemical substance, Gene No. 5600: Unigene No. Rn.9836; for Behavior of gene caused by administration of chemical substance, Gene No. 1494 / Behavior of gene caused by administration of chemical substance, Gene No. 2045 / Behavior of gene caused by administration of chemical substance, Gene No. 2203: gene group (B); for Behavior of gene caused by administration of chemical substance, Gene No. 1494: Unigene No. Rn.1430; for Behavior of gene caused by administration of chemical substance, Gene No. 2045: Unigene No. Rn.19329; for Behavior of gene caused by administration of chemical substance, Gene No. 2203: Unigene No. Rn.21240; for Behavior of gene caused by administration of chemical substance, Gene No. 533 / Behavior of gene caused by administration of chemical substance, Gene No. 725 / Behavior of gene caused by administration of chemical substance, Gene No. 1163 / Behavior of gene caused by administration of chemical substance, Gene No. 4973 / Behavior of gene caused by administration of chemical substance, Gene No. 4095 / Behavior of gene caused by administration of chemical substance, Gene No. 1334 / Behavior of gene caused by administration of chemical substance, Gene No. 6620 / Behavior of gene caused by administration of chemical substance, Gene No. 6303 / Behavior of gene caused by administration of chemical substance, Gene No. 5878 / Behavior of gene caused by administration of chemical substance, Gene No. 1131 / Behavior of gene caused by administration of chemical substance, Gene No. 1562 / Behavior of gene caused by administration of chemical substance, Gene No. 1741 / Behavior of gene caused by administration of chemical substance, Gene No. 893 / Behavior of gene caused by administration of chemical substance, Gene No. 6026 / Behavior of gene caused by administration of chemical substance, Gene No. 154 / Behavior of gene caused by administration of chemical substance, Gene No. 1993 / Behavior of gene caused by administration of chemical substance, Gene No. 813 / Behavior of gene caused by administration of chemical substance, Gene No. 2494 / Behavior of gene caused by administration of chemical substance, Gene No. 2546 / Behavior of gene caused by administration of chemical substance, Gene No. 3776 / Behavior of gene caused by administration of chemical substance, Gene No. 3929 / Behavior of gene caused by administration of chemical substance, Gene No. 1119 / Behavior of gene caused by administration of chemical substance, Gene No. 6742 / Behavior of gene caused by administration of chemical substance, Gene No. 5634: gene group (C); for Behavior of gene caused by administration of chemical substance, Gene No. 533: Unigene No. Rn.106184; for Behavior of gene caused by administration of chemical substance, Gene No. 725: Unigene No. Rn.108075; for Behavior of gene caused by administration of chemical substance, Gene No. 1163: Unigene No. Rn.11766; for Behavior of gene caused by administration of chemical substance, Gene No. 4973: Unigene No. Rn.118529; for Behavior of gene caused by administration of chemical substance, Gene No. 4095: Unigene No. Rn.119024; for Behavior of gene caused by administration of chemical substance, Gene No. 1334 / Behavior of gene caused by administration of chemical substance, Gene No. 6620: Unigene No. Rn.120914; for Behavior of gene caused by administration of chemical substance, Gene No. 6303: Unigene No. Rn.123063; for Behavior of gene caused by administration of chemical substance, Gene No. 5878: Unigene No. Rn.143213; for Behavior of gene caused by administration of chemical substance, Gene No. 1131: Unigene No. Rn.144946; for Behavior of gene caused by administration of chemical substance, Gene No. 1562: Unigene No. Rn.14744; for Behavior of gene caused by administration of chemical substance, Gene No. 1741: Unigene No. Rn.1647; for Behavior of gene caused by administration of chemical substance, Gene No. 893: Unigene No. Rn.164817; for Behavior of gene caused by administration of chemical substance, Gene No. 6026: Unigene No. Rn.167685; for Behavior of gene caused by administration of chemical substance, Gene No. 154: Unigene No. Rn.185941; for Behavior of gene caused by administration of chemical substance, Gene No. 1993: Unigene No. Rn.18728; for Behavior of gene caused by administration of chemical substance, Gene No. 813: Unigene No. Rn.201760; for Behavior of gene caused by administration of chemical substance, Gene No. 2494: Unigene No. Rn.23969; for Behavior of gene caused by administration of chemical substance, Gene No. 2546: Unigene No. Rn.24561; for Behavior of gene caused by administration of chemical substance, Gene No. 3776: Unigene No. Rn.43232; for Behavior of gene caused by administration of chemical substance, Gene No. 3929: Unigene No. Rn.4620; for Behavior of gene caused by administration of chemical substance, Gene No. 1119: Unigene No. Rn.9757; for Behavior of gene caused by administration of chemical substance, Gene No. 6742: Unigene No. Rn.9779; for Behavior of gene caused by administration of chemical substance, Gene No. 5634: Unigene No. Rn.9862; for Behavior of gene caused by administration of chemical substance, Gene No. 5726: gene group (D), Unigene No. Rn.9939
# How it was run: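 Male F344 SPF rats, 5 weeks old, four per group, received carcinogens, non-carcinogens or solvent vehicle by oral gavage once daily for 28 days. Liver total RNA was then extracted. Changes of ≥1.5-fold or ≤1/1.5 versus vehicle control, in a consistent direction across carcinogens, counted as significant.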
# [2] = classification of the substance (M+/M−); cited from earlier work
# liver = conditions: cited from earlier work
# rodent = conditions: classification of the substance (C+/C−); cited from earlier work
structure (smiles),measurement,setting,value
"O=C(OC[C@H]1O[C@@H](OC(=O)c2cc(O)c(O)c(OC(=O)c3cc(O)c(O)c(O)c3)c2)[C@H](OC(=O)c2cc(O)c(O)c(OC(=O)c3cc(O)c(O)c(O)c3)c2)[C@@H](OC(=O)c2cc(O)c(O)c(OC(=O)c3cc(O)c(O)c(O)c3)c2)[C@@H]1OC(=O)c1cc(O)c(O)c(OC(=O)c2cc(O)c(O)c(O)c2)c1)c1cc(O)c(O)c(OC(=O)c2cc(O)c(O)c(O)c2)c1 [TS052, Tannic acid]","Behavior of gene caused by administration of chemical substance, Gene No. 4846",[1],−
same,"Behavior of gene caused by administration of chemical substance, Gene No. 2026",[1],−
same,"Behavior of gene caused by administration of chemical substance, Gene No. 4218",[1],−
same,"Behavior of gene caused by administration of chemical substance, Gene No. 6182",[1],−
same,"Behavior of gene caused by administration of chemical substance, Gene No. 5600",[1],−
same,"Behavior of gene caused by administration of chemical substance, Gene No. 1494",[1],−
same,"Behavior of gene caused by administration of chemical substance, Gene No. 2045",[1],−
same,"Behavior of gene caused by administration of chemical substance, Gene No. 2203",[1],+
same,"Behavior of gene caused by administration of chemical substance, Gene No. 533",[1],−
same,"Behavior of gene caused by administration of chemical substance, Gene No. 725",[1],−
same,"Behavior of gene caused by administration of chemical substance, Gene No. 1163",[1],+
same,"Behavior of gene caused by administration of chemical substance, Gene No. 4973",[1],−
same,"Behavior of gene caused by administration of chemical substance, Gene No. 4095",[1],−
same,"Behavior of gene caused by administration of chemical substance, Gene No. 1334",[1],−
same,"Behavior of gene caused by administration of chemical substance, Gene No. 6620",[1],−
same,"Behavior of gene caused by administration of chemical substance, Gene No. 6303",[1],−
same,"Behavior of gene caused by administration of chemical substance, Gene No. 5878",[1],−
same,"Behavior of gene caused by administration of chemical substance, Gene No. 1131",[1],−
same,"Behavior of gene caused by administration of chemical substance, Gene No. 1562",[1],−
same,"Behavior of gene caused by administration of chemical substance, Gene No. 1741",[1],−
same,"Behavior of gene caused by administration of chemical substance, Gene No. 893",[1],−
same,"Behavior of gene caused by administration of chemical substance, Gene No. 6026",[1],−
same,"Behavior of gene caused by administration of chemical substance, Gene No. 154",[1],−
same,"Behavior of gene caused by administration of chemical substance, Gene No. 1993",[1],−
same,"Behavior of gene caused by administration of chemical substance, Gene No. 813",[1],−
same,"Behavior of gene caused by administration of chemical substance, Gene No. 2494",[1],−
same,"Behavior of gene caused by administration of chemical substance, Gene No. 2546",[1],−
same,"Behavior of gene caused by administration of chemical substance, Gene No. 3776",[1],−
same,"Behavior of gene caused by administration of chemical substance, Gene No. 3929",[1],−
same,"Behavior of gene caused by administration of chemical substance, Gene No. 1119",[1],−
same,"Behavior of gene caused by administration of chemical substance, Gene No. 6742",[1],−
same,"Behavior of gene caused by administration of chemical substance, Gene No. 5634",[1],−
same,"Behavior of gene caused by administration of chemical substance, Gene No. 5726",[1],−
same,Mutagenicity by Ames test,[2],M−
same,Liver carcinogenicity,liver; in vivo,Cr+
same,Carcinogenicity,rodent,C+
"ClC(Cl)C(Cl)(Cl)Cl [TS055, Pentachloroethane]","Behavior of gene caused by administration of chemical substance, Gene No. 4846",[1]; mRNA vs vehicle control group,−
same,"Behavior of gene caused by administration of chemical substance, Gene No. 2026",[1]; mRNA vs vehicle control group,−
same,"Behavior of gene caused by administration of chemical substance, Gene No. 4218",[1]; mRNA vs vehicle control group,−
same,"Behavior of gene caused by administration of chemical substance, Gene No. 6182",[1]; mRNA vs vehicle control group,−
same,"Behavior of gene caused by administration of chemical substance, Gene No. 5600",[1]; mRNA vs vehicle control group,−
same,"Behavior of gene caused by administration of chemical substance, Gene No. 1494",[1]; mRNA vs vehicle control group,+
same,"Behavior of gene caused by administration of chemical substance, Gene No. 2045",[1]; mRNA vs vehicle control group,−
same,"Behavior of gene caused by administration of chemical substance, Gene No. 2203",[1]; mRNA vs vehicle control group,−
same,"Behavior of gene caused by administration of chemical substance, Gene No. 533",[1]; mRNA vs vehicle control group,+
same,"Behavior of gene caused by administration of chemical substance, Gene No. 725",[1]; mRNA vs vehicle control group,−
same,"Behavior of gene caused by administration of chemical substance, Gene No. 1163",[1]; mRNA vs vehicle control group,+
same,"Behavior of gene caused by administration of chemical substance, Gene No. 4973",[1]; mRNA vs vehicle control group,+
same,"Behavior of gene caused by administration of chemical substance, Gene No. 4095",[1]; mRNA vs vehicle control group,+
same,"Behavior of gene caused by administration of chemical substance, Gene No. 1334",[1]; mRNA vs vehicle control group,+
same,"Behavior of gene caused by administration of chemical substance, Gene No. 6620",[1]; mRNA vs vehicle control group,+
same,"Behavior of gene caused by administration of chemical substance, Gene No. 6303",[1]; mRNA vs vehicle control group,+
same,"Behavior of gene caused by administration of chemical substance, Gene No. 5878",[1]; mRNA vs vehicle control group,+
same,"Behavior of gene caused by administration of chemical substance, Gene No. 1131",[1]; mRNA vs vehicle control group,+
same,"Behavior of gene caused by administration of chemical substance, Gene No. 1562",[1]; mRNA vs vehicle control group,+
same,"Behavior of gene caused by administration of chemical substance, Gene No. 1741",[1]; mRNA vs vehicle control group,+
same,"Behavior of gene caused by administration of chemical substance, Gene No. 893",[1]; mRNA vs vehicle control group,+
same,"Behavior of gene caused by administration of chemical substance, Gene No. 6026",[1]; mRNA vs vehicle control group,+
same,"Behavior of gene caused by administration of chemical substance, Gene No. 154",[1]; mRNA vs vehicle control group,+
same,"Behavior of gene caused by administration of chemical substance, Gene No. 1993",[1]; mRNA vs vehicle control group,+
same,"Behavior of gene caused by administration of chemical substance, Gene No. 813",[1]; mRNA vs vehicle control group,+
same,"Behavior of gene caused by administration of chemical substance, Gene No. 2494",[1]; mRNA vs vehicle control group,+
same,"Behavior of gene caused by administration of chemical substance, Gene No. 2546",[1]; mRNA vs vehicle control group,+
same,"Behavior of gene caused by administration of chemical substance, Gene No. 3776",[1]; mRNA vs vehicle control group,+
same,"Behavior of gene caused by administration of chemical substance, Gene No. 3929",[1]; mRNA vs vehicle control group,+
same,"Behavior of gene caused by administration of chemical substance, Gene No. 1119",[1]; mRNA vs vehicle control group,+
same,"Behavior of gene caused by administration of chemical substance, Gene No. 6742",[1]; mRNA vs vehicle control group,+
same,"Behavior of gene caused by administration of chemical substance, Gene No. 5634",[1]; mRNA vs vehicle control group,+
same,"Behavior of gene caused by administration of chemical substance, Gene No. 5726",[1]; mRNA vs vehicle control group,+
same,Mutagenicity by Ames test,[2],M−
same,Liver carcinogenicity,liver; classification of the substance (Cr+/Cr−),Cr−
same,Carcinogenicity,rodent,C+
